Molecules are shown by their SMILES.

One experiment concerns T1, PDE-1.
T1 construct: gene phosphodiesterase I; substrate bis(p-nitrophenyl) phosphate type, pH 8.8 and Mg acetate fit the usual snake venom phosphodiesterase I, not the docking model human PDE1B (5W6E)
Description: bis(p-nitrophenyl) substrate hydrolysis, […] nm. To be noted: 0.33 mM bis(p-nitrophenyl) substrate, Mg acetate, Tris-HCl pH 8.8, 37 °C. It is filed as biochemical.

Experiment [1] has as its target T2, mushroom tyrosine [tyrosinase].
T2 construct: gene PPO1; docking model 1WX2 is another species (Streptomyces)
Description: L-DOPA oxidation, absorbance […] nm. It counts as biochemical. The conditions noted are these: L-DOPA (printed L-DOP) substrate, phosphate buffer, 37 °C.

In the case of `O=C(O)CN(CCN(CC(=O)O)CC(=O)O)CC(=O)O` [EDTA], the 50% inhibitory concentration (IC50) (in general, the concentration that inhibits the measured activity by half) in the experiment on PDE-1 (chelator used as standard) is 264.1 ± 1.09 µM. The compound `O=c1cc(CO)occ1O` [Kojic acid] registered an IC50 in experiment [1] of 44 ± 1.1 µM. Regarding `CC1(C)C=Cc2c(cc3oc(-c4ccc(O)cc4)cc(=O)c3c2O)O1` [compound 1, carpachromene], the IC50 in the experiment on PDE-1 was 209.4 ± 1.87 µM; in experiment [1] it was 40.5 ± 2 µM.

The record behind these values is paper PMC9794428, “Enzyme Inhibitory Activities of Extracts and Carpachromene from the Stem of Ficus benghalensis” (BioMed Research International, 2022).
